According to patent publication US6482948B1, “Thienopyrimidine compounds and salts thereof and process for the preparation of the same” (Nippon Soda Co., Ltd., priority 1999, dated 2002):

What was measured:
[1] = molecular target: PDE 1 (Ca-calmodulin activatable PDE); test: Phosphodiesterase inhibiting activity, PDE 1; assay type: biochemical; conditions: isozyme from dog heart; 1 μM [3H]-cAMP or [3H]-cGMP; read-out: Inhibition of PDE Activity: IC50 PDE 1
Procedure: (§1) Pharmacological Test Example 1: Phosphodiesterase Inhibiting Activity
(§2) Cyclic nucleotide phosphodiesterases from human platelets and from the heart and kidney of a dog were eluted by the concentration gradient method with 70 to 1000 mM of sodium acetate on DEAE-cellulose column chromatography (Whatman Co. Ltd., DE-52, φ3.2×13 cm) according to the method of Thompson and others (Thompson W. J., et al., Advances in Cyclic Nucleotide Research: 10, 69-92, 1979), and separated into isozymes. PDE 5 (cGMP specific PDE) and PDE 3 (cGMP inhibitable cAMP PDE) were separated from the platelets, PDE 1 (Ca-calmodulin activatable PDE) from the heart, and PDE 4 (cGMP non-inhibitable cAMP PDE) from the kidney. The method of Thompson, et al was partially modified to measure phosphodiesterase activities: 1 μM of [3H]-cAMP or [3H]-cGMP was decomposed with phosphodiesterase. The produced 5′-AMP or 5′-GMP was decomposed to adenosine or guanosine with a snake venom (Sigma V7000). The reaction solution was added to anion exchange resin (Bio-Rad Co. Ltd., AG1-X8). Non-adsorbed adenosine or guanosine was counted by a liquid scintillation counter. A concentration causing 50% inhibition of the enzyme activity (IC50) was calculated from concentration inhibition curves.

PDE 2 = molecular target: T1, PDE 2 (Homo sapiens, UniProt O00408); test: Phosphodiesterase inhibiting activity, PDE 2; assay type: biochemical; conditions: 1 μM [3H]-cAMP or [3H]-cGMP; source of isozyme not given; read-out: Inhibition of PDE Activity: IC50 PDE 2
T1 construct: eluted by the concentration gradient method with 70 to 1000 mM of sodium acetate on DEAE-cellulose column chromatography; from tissue
Procedure: [Worded in the source for another target; this target is reported under the same test.] as §1, §2

[2] = molecular target: T2, PDE 3 (cGMP inhibitable cAMP PDE) (Homo sapiens, UniProt Q14432); test: Phosphodiesterase inhibiting activity, PDE 3; assay type: biochemical; conditions: isozyme from human platelets; 1 μM [3H]-cAMP or [3H]-cGMP; read-out: Inhibition of PDE Activity: IC50 PDE 3
T2 construct: from tissue; host or cells: human platelets
Procedure: as §1, §2

[3] = molecular target: PDE 4 (cGMP non-inhibitable cAMP PDE); test: Phosphodiesterase inhibiting activity, PDE 4; assay type: biochemical; conditions: isozyme from dog kidney; 1 μM [3H]-cAMP or [3H]-cGMP; read-out: Inhibition of PDE Activity: IC50 PDE 4
Procedure: as §1, §2

[4] = molecular target: T3, PDE 5 (cGMP specific PDE) (Homo sapiens, UniProt O76074); test: Phosphodiesterase inhibiting activity, PDE 5; assay type: biochemical; conditions: isozyme from human platelets; 1 μM [3H]-cAMP or [3H]-cGMP; read-out: Inhibition of PDE Activity: IC50 PDE 5
T3 construct: from tissue; host or cells: human platelets
Procedure: as §1, §2

thoracic aortas = test: Vasodilating activity, phenylephrine-contracted thoracic aorta ring preparations (Magnus method); parameters: species or system Sprague-Dawley male rats; conditions: rat thoracic aorta ring preparations contracted with 1 μM phenylephrine, 37° C., drug added cumulatively
Procedure: Pharmacological Test Example 2: Vasodilating Activity
A vasodilating activity was assessed according to the method of Ken-ichi Hirata and Mitsuhiro Yokoyama (Arteriosclerosis and Hyperlipemia Research Strategies, published by Shujunsha (Japan), pages 275-277, 1996): The thoracic aortas were extracted from Sprague-Dawley male rats (weighing 180 to 360 g). After unnecessary connective tissues were removed, the aortas were cut to 5mm-long pieces to make ring strip preparations, and assessed by the Magnus method (37° C.). A nutrient solution used was a Krebs-Henseleit solution aerated with 5% carbon dioxide gas and 95% oxygen gas. Specimens were equilibrated for about 60 minutes, and then contracted by adding 1 μM of phenylephrine. 1 μM of acetylcholine was added at the second phenylepherine-induced contraction in order to confirm an endothelial cell dependent relaxation response. At the third phenylepherine-induced contraction, a drug to test was added cumulatively, and the relaxation action was observed. Drugs to test were all dissolved in DMSO to use for the tests. The tested drugs were assessed by 50% relaxation rates (EC50) obtained from vasodilation rates to respective concentrations (the maximum relaxation was measured by adding 100 μM of papaverine).

T2 sequence (Q14432 whole entry): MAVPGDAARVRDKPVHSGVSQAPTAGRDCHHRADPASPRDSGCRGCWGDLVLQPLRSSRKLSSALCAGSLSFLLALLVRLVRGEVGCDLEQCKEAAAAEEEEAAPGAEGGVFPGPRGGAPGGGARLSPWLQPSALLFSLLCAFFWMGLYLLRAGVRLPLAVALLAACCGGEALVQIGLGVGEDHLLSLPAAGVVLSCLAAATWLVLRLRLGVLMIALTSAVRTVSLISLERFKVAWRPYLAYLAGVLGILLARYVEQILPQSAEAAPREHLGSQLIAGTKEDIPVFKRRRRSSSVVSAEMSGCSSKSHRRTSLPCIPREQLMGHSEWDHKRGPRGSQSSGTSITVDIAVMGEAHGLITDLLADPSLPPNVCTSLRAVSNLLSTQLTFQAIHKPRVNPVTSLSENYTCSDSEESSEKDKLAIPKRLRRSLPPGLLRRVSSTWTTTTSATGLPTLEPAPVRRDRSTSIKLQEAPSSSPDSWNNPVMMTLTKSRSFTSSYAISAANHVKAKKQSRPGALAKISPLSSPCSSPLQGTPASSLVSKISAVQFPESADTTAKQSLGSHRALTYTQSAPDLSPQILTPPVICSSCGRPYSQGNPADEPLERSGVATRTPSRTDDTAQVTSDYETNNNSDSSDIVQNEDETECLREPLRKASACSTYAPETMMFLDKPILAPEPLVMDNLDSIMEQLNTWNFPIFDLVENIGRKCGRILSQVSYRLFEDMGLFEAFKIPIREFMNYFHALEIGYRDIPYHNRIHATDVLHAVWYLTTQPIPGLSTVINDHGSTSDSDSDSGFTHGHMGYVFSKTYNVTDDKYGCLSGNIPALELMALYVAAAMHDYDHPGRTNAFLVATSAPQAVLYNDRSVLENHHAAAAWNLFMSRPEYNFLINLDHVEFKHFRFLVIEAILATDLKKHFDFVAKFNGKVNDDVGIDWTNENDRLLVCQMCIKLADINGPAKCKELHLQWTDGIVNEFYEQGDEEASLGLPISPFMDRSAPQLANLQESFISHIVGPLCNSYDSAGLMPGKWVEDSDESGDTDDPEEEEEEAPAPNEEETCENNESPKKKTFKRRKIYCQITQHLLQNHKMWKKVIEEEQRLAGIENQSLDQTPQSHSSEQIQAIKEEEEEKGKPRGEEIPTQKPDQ
T1 sequence (O00408 whole entry): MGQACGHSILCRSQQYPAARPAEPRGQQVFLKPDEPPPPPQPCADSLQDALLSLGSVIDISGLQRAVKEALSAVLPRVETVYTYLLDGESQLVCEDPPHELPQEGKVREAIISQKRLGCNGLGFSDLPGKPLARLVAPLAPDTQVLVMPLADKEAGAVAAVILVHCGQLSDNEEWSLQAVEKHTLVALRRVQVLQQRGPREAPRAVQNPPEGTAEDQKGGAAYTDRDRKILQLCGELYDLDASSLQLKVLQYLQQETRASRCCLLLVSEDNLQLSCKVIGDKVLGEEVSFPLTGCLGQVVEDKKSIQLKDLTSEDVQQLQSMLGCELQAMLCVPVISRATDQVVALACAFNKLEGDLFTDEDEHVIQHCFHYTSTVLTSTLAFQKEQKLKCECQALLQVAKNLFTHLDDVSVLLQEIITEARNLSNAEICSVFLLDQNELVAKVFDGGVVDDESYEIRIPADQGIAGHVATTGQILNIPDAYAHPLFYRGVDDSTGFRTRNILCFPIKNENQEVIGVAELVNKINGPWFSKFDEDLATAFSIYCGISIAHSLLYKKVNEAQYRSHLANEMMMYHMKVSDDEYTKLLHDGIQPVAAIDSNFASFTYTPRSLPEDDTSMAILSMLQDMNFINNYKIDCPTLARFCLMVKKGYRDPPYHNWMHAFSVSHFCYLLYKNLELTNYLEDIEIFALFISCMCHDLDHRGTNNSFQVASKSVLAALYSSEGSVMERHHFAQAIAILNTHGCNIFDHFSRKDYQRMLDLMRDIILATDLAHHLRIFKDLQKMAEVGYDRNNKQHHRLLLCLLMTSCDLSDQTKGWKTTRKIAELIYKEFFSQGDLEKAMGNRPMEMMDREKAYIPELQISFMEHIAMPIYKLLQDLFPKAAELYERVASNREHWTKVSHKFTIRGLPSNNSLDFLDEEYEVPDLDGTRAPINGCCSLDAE

Compound	IC50 [1]	IC50 (PDE 2)	IC50 [2]	IC50 [3]	IC50 [4]	EC50 (thoracic aortas)	melting point
COc1ccc(CNc2nc(-c3ccc4c(c3)OCO4)nc3sc4c(c23)CCN(Cc2ccccc2)C4)cc1Cl [1-1]	> 10000 nM	3900 nM	> 10000 nM	> 10000 nM	0.92 nM	86 nM	
COc1ccc(CNc2nc(-c3cccnc3)nc3sc4c(c23)CCN(Cc2ccccc2)C4)cc1Cl [1-4]	> 10000 nM	2700 nM	6100 nM	2000 nM	2.6 nM	19 nM	
CCOC(=O)N1CCc2c(sc3nc(-c4ccncc4)nc(NCc4ccc(OC)c(Cl)c4)c23)C1 [1-5]	> 10000 nM	> 10000 nM	> 10000 nM	2500 nM	0.54 nM	8.1 nM	218 to 220 °C
COc1ccc(CNc2nc(-c3ccco3)nc3sc4c(c23)CCN(C)C4)cc1Cl [1-6]	5500 nM	> 10000 nM	> 10000 nM	3600 nM	50 nM	16 nM	90 to 92 °C
COc1ccc(CNc2nc(-c3ccncc3)nc3sc4c(c23)CCN(C)C4)cc1Cl [1-7]	> 10000 nM	2000 nM	5400 nM	3700 nM	2.4 nM	9.5 nM	118 to 120 °C
COc1ccc(CNc2nc(-c3cccnc3)nc3sc4c(c23)CCN(C(C)=O)C4)cc1Cl [1-9, 5,6,7,8-tetrahydro-4-[(3-chloro-4-methoxy)benzylamino]-7-acetyl-2-(3-pyridyl)pyrido[4′,3′:4,5]thieno[2,3-d]pyrimidine]						6.3 nM	226 to 227 °C
CCOC(=O)N1CCc2c(sc3nc(-c4cccnc4)nc(NCc4ccc(OC)c(Cl)c4)c23)C1 [1-15, 5,6,7,8-tetrahydro-4-[(3-chloro-4-methoxy)benzylamino]-7-ethoxycarbonyl-2-(3-pyridyl)pyrido[4′,3′:4,5]thieno[2,3-d]pyrimidine]						2.1 nM	
COC(=O)CNC(=O)c1nc(NCc2ccc(OC)c(Cl)c2)c2c3c(sc2n1)CN(C(C)C)CC3 [1-54]	> 10000 nM	> 10000 nM	≥ 10000 nM	> 10000 nM	33 nM	19 nM	155 to 157 °C
CCOc1ccccc1NC(=O)c1nc(NCc2ccc(OC)c(Cl)c2)c2c3c(sc2n1)CN(C(C)C)CC3 [1-55]	> 10000 nM	> 10000 nM	> 10000 nM	2000 nM	62 nM	180 nM	
COc1ccc(CNc2nc(C(=O)Nc3nccs3)nc3sc4c(c23)CCN(C)C4)cc1Cl [1-57]	> 10000 nM	> 10000 nM	> 10000 nM	> 10000 nM	0.55 nM	2.7 nM	
COc1ccc(CNc2nc(C(=O)Nc3ccncc3)nc3sc4c(c23)CCN(C)C4)cc1Cl [1-58]	> 10000 nM	> 10000 nM	> 10000 nM	> 10000 nM	2.1 nM	5.1 nM	
COc1ccc(CNc2nc(C(=O)Nc3ccc(-n4ccnc4)cc3)nc3sc4c(c23)CCN(C)C4)cc1Cl [1-59]	> 10000 nM	6100 nM	7600 nM	3400 nM	78 nM	7.6 nM	
COc1ccc(CNc2nc(C(=O)Nc3ccccc3Cl)nc3sc4c(c23)CCN(C)C4)cc1Cl [1-60]	> 10000 nM	> 10000 nM	> 10000 nM	3600 nM	14 nM	7.5 nM	
COc1ccc(CNc2nc(C(=O)Nc3ccc(Cl)cc3)nc3sc4c(c23)CCN(C)C4)cc1Cl [1-61, 5,6,7,8-tetrahydro-4-[(3-chloro-4-methoxy)benzylamino]-7-methylpyrido[4′,3′:4,5]thieno[2,3-d]pyrimidine-2-N-(4-chlorophenyl)carboxamide]	> 10000 nM	> 10000 nM	> 10000 nM	> 10000 nM	0.92 nM	8.7 nM	
COc1ccc(NC(=O)c2nc(NCc3ccc(OC)c(Cl)c3)c3c4c(sc3n2)CN(C)CC4)cc1 [1-62]	> 10000 nM	> 10000 nM	> 10000 nM	> 10000 nM	2.4 nM	7.2 nM	
COc1ccc(CNc2nc(C(=O)NC3CCCCC3)nc3sc4c(c23)CCN(C)C4)cc1Cl [1-63]	> 10000 nM	> 10000 nM	> 10000 nM	> 10000 nM	0.38 nM	4.8 nM	
COC(=O)c1nc(NCc2ccc(OC)c(Cl)c2)c2c3c(sc2n1)CN(Cc1ccccc1)CC3 [1-65]	> 10000 nM	> 10000 nM	> 10000 nM	> 10000 nM	91 nM	260 nM	168 to 170 °C
COc1ccc(CNc2nc(C(=O)Nc3ccccc3)nc3sc4c(c23)CCN(Cc2ccccc2)C4)cc1Cl [1-67]	> 10000 nM	> 10000 nM	> 10000 nM	> 10000 nM	0.39 nM	82 nM	
CCOC(=O)c1nc(NCc2ccc(OC)c(Cl)c2)c2c3c(sc2n1)CN(C)CC3 [1-69, ethyl 5,6,7,8-tetrahydro-4-[(3-chloro-4-methoxy)benzylamino]-7-methylpyrido[4′,3′:4,5]thieno[2,3-d]pyrimidine-2-carboxylate]	> 10000 nM	> 10000 nM	> 10000 nM	> 10000 nM	31 nM	18 nM	
COc1ccc(CNc2nc(C(=O)Nc3ccccc3)nc3sc4c(c23)CCN(C)C4)cc1Cl [1-72]	> 10000 nM	> 10000 nM	> 10000 nM	> 10000 nM	1.8 nM	7.4 nM	
COc1ccc(CNc2nc(C(=O)Nc3ccccc3)nc3sc4c(c23)CCN(C(C)C)C4)cc1Cl [1-75]	> 10000 nM	> 10000 nM	> 10000 nM	8400 nM	1.4 nM	9.3 nM	
COc1ccc(CNc2nc(C(=O)NC3CC3)nc3sc4c(c23)CCN(C(C)C)C4)cc1Cl [1-76]	> 10000 nM	> 10000 nM	> 10000 nM	> 10000 nM	56 nM	26 nM	112 to 114 °C
COc1ccc(CNc2nc(C(=O)NCc3ccccc3)nc3sc4c(c23)CCN(C)C4)cc1Cl [1-79]	670 nM	> 10000 nM	> 10000 nM	5100 nM	16 nM	18 nM	
COC(=O)c1ccc(NC(=O)c2nc(NCc3ccc(OC)c(Cl)c3)c3c4c(sc3n2)CN(C)CC4)cc1 [1-80]	> 10000 nM	3300 nM	> 10000 nM	4100 nM	53 nM	25 nM	
COc1ccc(CNc2nc(C(N)=O)nc3sc4c(c23)CCN(C)C4)cc1Cl [1-83]	1300 nM	3100 nM	> 10000 nM	> 10000 nM	75 nM		
CCOC(=O)Cc1nc(NCc2ccc(OC)c(Cl)c2)c2c3c(sc2n1)C(=O)N(C(C)C)CC3 [2-10]	> 10000 nM	> 10000 nM	7400 nM	8000 nM	39 nM	18 nM	
COc1ccc(CNc2nc(C(=O)Nc3ccccc3)nc3sc4c(c23)CCCC4)cc1Cl [3-2]	> 10000 nM	> 10000 nM	> 10000 nM	> 10000 nM	0.39 nM		210 to 211 °C
